Measurements as given in patent US8642612B2, “Nicotinic desensitizers and methods of selecting, testing, and using them” (Potomac Pharmaceuticals, Inc., priority 2006, dated 2014).
Read-outs that look alike come from different tables or passages of the source.

What was measured:
[1] = cited from earlier work
rat α3β4 nAChRs [2] = biological target: T1, rat α3β4 nAChRs (Rattus norvegicus, UniProt P04757+P12392); assay: Inhibition of nicotine-stimulated 86Rb+ efflux, cells expressing rat α3β4 nAChRs; type: cell-based
T1 construct: expressed in transfected cells; the efflux text says only stably transfected cells
Experimental: (§1) In brief, cells were plated into 24-well plates coated with poly-D-lysine. […] The cells were then incubated in growth medium (0.5 ml/well) containing ^86Rb^+ (2 μCi/ml) for 4 hour at 37° C. The loading mixture was then aspirated, and the cells were washed four times with 1 ml buffer (15 mM HEPES, 140 mM NaCl, 2 mM KCl, 1 mM MgSO4, 1.8 mM CaCl2, 11 mM Glucose, pH 7.4). One ml of buffer with or without compounds to be tested was then added to each well. After incubation for 2 min, the assay buffer was collected for measurements of ^86Rb^+ released from the cells. Cells were then lysed by adding 1 ml of 100 mM NaOH to each well, and the lysate was collected for determination of the amount of ^86Rb^+ that was in the cells at the end of the efflux assay. Radioactivity of assay samples and lysates was measured by liquid scintillation counting. Total loading (cpm) was calculated as the sum of the assay sample and the lysate of each well. The amount of ^86Rb^+ efflux was expressed as a percentage of […] loaded. […] IC50 values were determined by nonlinear least-squares regression analyses (GraphPad, San Diego, Calif.).

rat α4β2 nAChRs [3] = biological target: T2, rat α4β2 nAChRs (Rattus norvegicus, UniProt P09483+P12390); conditions: 100 pM [3H]EB; published previously (Xiao and Kellar, 2004); cited from earlier work
T2 construct: expressed in transfected cells; host or cells: HEK cells (membrane homogenates)

rat α3β4 nAChRs [4] = biological target: T1, rat α3β4 nAChRs; conditions: 100 pM [3H]EB; published previously (Xiao and Kellar, 2004); cited from earlier work
[5] = biological target: native nAChRs from rat forebrain (Rattus norvegicus, UniProt P09483+P12390); conditions: read-out: Ki Forebrain (rat); 100 pM [3H]EB; published previously (Xiao and Kellar, 2004); cited from earlier work
rat α4β2 nAChRs [6] = biological target: T2, rat α4β2 nAChRs; assay: [3H]epibatidine competition binding, rat α4β2 nAChRs expressed in HEK cells
Experimental: (§2) Briefly, cultured cells at >80% confluence were removed from their flasks (80 cm^2) with a disposable cell scraper and placed in 10 ml of 50 mM Tris HCl buffer (pH 7.4, 4° C.). The cell suspension was centrifuged at 10,000×g for 5 min and the pellet was collected. For cells treated chronically with nicotinic agonists during culturing, the pellet was washed two more times by centrifugation in fresh buffer to remove residual drug. […] Bound and free ligands were separated by vacuum filtration through Whatman GF/C filters treated with 0.5% polyethylenimine. The filter-retained radioactivity was measured by liquid scintillation counting. Specific binding was defined as the difference between total binding and nonspecific binding. Data from saturation and competition binding assays were analyzed using Prism 4 (GraphPad Software, San Diego, Calif.).
(§3) All ligand binding assays were carried out using rat or human nAChRs heterologously expressed in human cells or in native rat brain tissues.

rat α3β4 nAChRs [7] = biological target: T1, rat α3β4 nAChRs; assay: [3H]epibatidine competition binding, rat α3β4 nAChRs expressed in HEK cells
Experimental: as §2, with “drug. The cell pellet was then homogenized in 10 ml buffer with a polytron homogenizer (Model PT2100, 12 mm aggregate, 26,000 rpm, 20 seconds) and centrifuged at 36,000 g for 10 min at 4° C. The membrane pellet was resuspended in fresh buffer, and aliquots of the membrane preparation equivalent to 30 to 200 μg protein were used for binding assays.” for “drug.”
as §3

human α4β2 nAChRs [8] = biological target: T3, human α4β2 nAChRs (Homo sapiens, UniProt P17787+P43681); type: cell-based; conditions: stimulation of 86Rb+ efflux
T3 construct: expressed in transfected cells; the efflux text says only stably transfected cells
Experimental: as §1
(§4) The agonist activities of ligands on nAChRs were assessed by measuring agonist-stimulated ^86Rb^+ efflux from stably transfected cells.

rat α3β4 nAChRs [9] = biological target: T1, rat α3β4 nAChRs; type: cell-based; conditions: stimulation of 86Rb+ efflux
Experimental: as §1, §4

human α4β2 nAChRs [10] = biological target: T3, human α4β2 nAChRs; assay: Inhibition of nicotine-stimulated 86Rb+ efflux, cells expressing human α4β2 nAChRs; type: cell-based
Experimental: as §1

[11] = cited from earlier work; remark: listed apart in the source
[12] = example tables, species not given, read-out: Equilibrium binding affinity (Ki, nM) α4β2
[13] = example tables, species not given, read-out: Equilibrium binding affinity (Ki, nM) α3β4
[14] = 10 min pretreatment before nicotine, read-out: Desensitization Potency (IC50(D,10 min), nM) α4β2
[15] = applied simultaneously with nicotine, read-out: Acute Antagonist Potency (IC50(A), nM) α4β2
[16] = 10 min pretreatment before nicotine, read-out: Desensitization Potency (IC50(D,10 min), nM) α3β4
[17] = read-out: Acute Antagonist Potency (IC50(A), nM) α3β4
[18] = applied simultaneously with nicotine, read-out: Acute Antagonist Potency (IC50(A), nM) α3β4
[19] = Acute Antagonist Potency (IC50(A), nM) α4β2, applied simultaneously with nicotine
[20] = Desensitization Potency (IC50(D,10 min), nM) α4β2, 10 min pretreatment before nicotine
[21] = Acute Antagonist Potency (IC50(A), nM) α3β4, applied simultaneously with nicotine
[22] = Desensitization Potency (IC50(D,10 min), nM) α3β4, 10 min pretreatment before nicotine

| SMILES | Ki (rat α4β2 nAChRs [6]; [12]) | Ki (rat α3β4 nAChRs [7]; [13]) | Agonist Activity α4β2 (human α4β2 nAChRs [8]) | Agonist Activity α3β4 (rat α3β4 nAChRs [9]) | IC50 (human α4β2 nAChRs [10]; [14]) | IC50 (human α4β2 nAChRs [10]; [15]) | IC50 (rat α3β4 nAChRs [2]; [16]) | IC50 (rat α3β4 nAChRs [2]; [18]) | IC50 (human α4β2 nAChRs [10]; [19]) | IC50 (human α4β2 nAChRs [10]; [20]) | IC50 (rat α3β4 nAChRs [2]; [21]) | IC50 (rat α3β4 nAChRs [2]; [22]) | other results |
| --- | --- | --- | --- | --- | --- | --- | --- | --- | --- | --- | --- | --- | --- |
| CN1CCCC1c1cccnc1 (single isomer, unassigned; (-)) [(−)-Nicotine, nicotine] |  |  |  |  |  |  |  |  |  |  |  |  | t1/2 in vivo [1]: > 1 h |
| CO[C@H]1CC=C2CCN3CCC4=C(CC(=O)OC4)[C@]23C1 [DHβE, dihydro-β-erythroidine] |  |  |  |  |  |  |  |  |  |  |  |  | IC50 (rat α3β4 nAChRs [2]; added simultaneously with 100 μM nicotine, mean ± SEM of 3 to 7 experiments, read-out: IC50 α3β4 nAChRs, 0 min Pretreatment): 160000 nM; IC50 (rat α3β4 nAChRs [2]; read-out: IC50 α3β4 nAChRs, 10 min Pretreatment, 10 min preincubation, then 100 μM nicotine, mean ± SEM of 3 to 7 experiments): 130000 nM; Ki (rat α4β2 nAChRs [3]): 0.6 ± 0.07 µM; Ki (rat α3β4 nAChRs [4]): 110 µM; Ki [5]: 0.13 ± 0.05 µM |
| Cc1cc2n(c(=O)c1)CC1CNCC2C1 (stereo not shown) [SKC-2-150] | 1.9 nM | 6700 nM | Not detected | Not detected | 250 nM | > 10000 nM | > 10000 nM |  |  |  |  |  | IC50 (rat α3β4 nAChRs [2]; [17]): > 10000 nM |
| O=c1cc(CO)cc2n1CC1CNCC2C1 (stereo not shown) [SKC-2-203] | 11 nM | 13000 nM | Not detected | Not detected | 600 nM | > 10000 nM | > 10000 nM |  |  |  |  |  | IC50 (rat α3β4 nAChRs [2]; [17]): > 10000 nM |
| CNc1ccccc1C(=O)OCC#Cc1cncc(OC[C@@H]2CCN2)c1 [Sazetidine-B] |  |  | Not detected | Not detected | 30 nM | > 10000 nM | 6000 nM | > 10000 nM |  |  |  |  | Ki (rat α4β2 nAChRs [6]): 0.22 nM; Ki (rat α3β4 nAChRs [7]): 1300 nM |
| C#Cc1cncc(OC[C@@H]2CCCN2C)c1 [ZW-87] | 1.6 nM | 6800 nM | Not detected | Not detected |  |  |  |  | > 10000 nM | 50 nM | > 10000 nM | > 10000 nM |  |
| CN1CCC[C@H]1COc1cncc(C#CC(C)(C)O)c1 [ZW-88] | 2.9 nM |  | Not detected | Not detected |  |  |  |  | > 10000 nM | 890 nM | > 10000 nM | > 10000 nM | Ki (rat α3β4 nAChRs [7]): 61000 nM |
| CN1CCC[C@H]1COc1cncc(C#CCO)c1 [ZW-89] | 0.93 nM | 23000 nM | Not detected | Not detected |  |  |  |  | > 10000 nM | 180 nM | > 10000 nM | > 10000 nM |  |
| CN1CCC[C@H]1COc1cncc(CCCCCCO)c1 [ZW-91] |  |  | Not detected | Not detected |  |  |  |  | > 10000 nM | 1000 nM | > 10000 nM | > 10000 nM |  |
| CN1CCC[C@H]1COc1cncc(C#CCCCCCCCCO)c1 [ZW-93] | 6.1 nM | 66000 nM | Not detected | Not detected |  |  |  |  | 7400 nM | 460 nM | 4600 nM | 3800 nM |  |
| CN1CCC[C@H]1COc1cncc(C#CCNC(=O)OC(C)(C)C)c1 [ZW-97] |  |  | Not detected | Not detected | 22 nM | > 10000 nM | 6900 nM | > 10000 nM |  |  |  |  | Ki (rat α4β2 nAChRs [6]): 1.4 nM; Ki (rat α3β4 nAChRs [7]): 75000 nM |
| CN1CCC[C@H]1COc1cncc(C#Cc2ccccc2)c1 [ZW-98] | 0.51 nM | 8100 nM | Not detected | Not detected | 170 nM | > 10000 nM | 5300 nM | > 10000 nM |  |  |  |  |  |
| CCCCC#Cc1cncc(OC[C@@H]2CCCN2C)c1 [ZW-100] | 1.4 nM | 40000 nM | Not detected | Not detected | 190 nM | > 10000 nM | 3300 nM | > 10000 nM |  |  |  |  |  |
| CN1CCC[C@H]1COc1cncc(C#CCCCCO)c1 [ZW-101] |  |  | Not detected | Not detected | 160 nM | > 10000 nM | 2500 nM | > 10000 nM |  |  |  |  | Ki (rat α4β2 nAChRs [6]): 0.67 nM; Ki (rat α3β4 nAChRs [7]): 16000 nM |
| FCCCCC#Cc1cncc(OC[C@@H]2CCCN2)c1 [ZW-102] | 0.91 nM | 7600 nM | Not detected | Not detected |  |  |  |  | > 10000 nM | 120 nM | > 10000 nM | 5400 nM |  |
| FCCCCC#Cc1cncc(OC[C@@H]2CCN2)c1 [ZW-104] |  | 5500 nM | Not detected | Not detected |  |  |  |  | > 10000 nM | 5 nM | 9400 nM | 5700 nM | Ki (rat α4β2 nAChRs [6]): 0.21 nM |
| CN1CCC[C@H]1COc1cncc(C#CCCCCBr)c1 [ZW-109] |  |  | Not detected | Not detected | 270 nM | > 10000 nM | 2300 nM | 6900 nM |  |  |  |  | Ki (rat α4β2 nAChRs [6]): 1.4 nM; Ki (rat α3β4 nAChRs [7]): 16000 nM |
| CN1CCC[C@H]1COc1cncc(C#CCCCCF)c1 [ZW-110] | 0.95 nM | 88000 nM | Not detected | Not detected |  |  |  |  | > 10000 nM | 60 nM | > 10000 nM | > 10000 nM |  |
| c1cnc2cc3c(cc2n1)[C@@H]1CNC[C@H]3C1 [varenicline] |  |  |  |  |  |  |  |  |  |  |  |  | nausea, share of clinical trial participants [11]: ~30% |
